In publication PMC8482776 (ACS Omega, 2021):
Values after ≈ are worked out from the molar mass of the structure shown. Values joined by “and” are separate entries in the source; they are usually repeats but may differ in a detail not shown here. Equal entries are not always repeated.

Key:
[1] = system: Asp. fumigatus (PTCC 5009); test: Microdilution MIC90, strain H; format: cell-based; settings: filamentous fungi, 48 h at 37 °C, triplicate
[2] = system: FLC-resistant clinical C. albicans isolate (R1) biofilm; test: Antibiofilm MTT reduction assay, strain R1; format: cell-based; settings: triplicate
[3] = system: FLC-resistant clinical Candida isolate R2 (C. albicans); test: PMIC90, FLC-resistant isolate R2; format: cell-based; settings: strain R2, planktonic
[4] = system: Asp. flavus (ATCC 204304); test: Microdilution MIC90, strain G; format: cell-based, Aspergillus flavus; settings: Aspergillus flavus, ATCC204304, 48 h, filamentous fungi, 48 h at 37 °C, triplicate
[5] = system: FLC-resistant clinical Candida isolate R1 (C. albicans); test: PMIC90, FLC-resistant isolate R1; format: cell-based; settings: strain R1, planktonic
[6] = system: FLC-resistant clinical Candida isolate R5 (C. albicans); test: PMIC90, FLC-resistant isolate R5; format: cell-based; settings: strain R5, planktonic
[7] = system: FLC-resistant clinical Candida isolate R6 (C. albicans); test: PMIC90, FLC-resistant isolate R6; format: cell-based; settings: strain R6, planktonic
[8] = system: Asp. nidulans (PTCC 5014); test: Microdilution MIC90, strain F; format: cell-based, Aspergillus nidulans; settings: Aspergillus nidulans, PTCC5014, 48 h, filamentous fungi, 48 h at 37 °C, triplicate
T. rubrum (PTCC 5143) = test: Microdilution MIC90, strain K; format: cell-based, Trichophyton rubrum; settings: Trichophyton rubrum, PTCC5143, 48 h, filamentous fungi, 48 h at 37 °C, triplicate
Asp. terreus (PTCC 5023) = test: Microdilution MIC90, strain J; format: cell-based, Aspergillus terreus; settings: filamentous fungi, 48 h at 37 °C, triplicate
[9] = system: C. parapsilosis (ATCC 22019); test: Microdilution MIC90, strain D; format: cell-based; settings: 24 h
[10] = system: T. schoenleinii (PTCC 5221); test: Microdilution MIC90, strain N; format: cell-based; settings: Trichophyton schoenleinii, PTCC5221, 48 h
HDF normal cells = test: MTT cytotoxicity assay, HDF; format: cell-based, human; settings: HDF normal cell line, up to 100 μg/mL, 48 h
PANC-1 = test: MTT cytotoxicity assay, PANC-1; format: cell-based, human; settings: PANC-1, at 30 and 60 μg/mL, 48 h
C. krusei (ATCC 6258) = test: Microdilution MIC90, strain B; format: cell-based; settings: for MIC90: 24 h, yeast, 24 h at 37 °C, triplicate
[11] = system: FLC-resistant clinical C. albicans isolate (R2) biofilm; test: Antibiofilm MTT reduction assay, strain R2; format: cell-based; settings: triplicate
M. canis (PTCC 5069) = test: Microdilution MIC90, strain O; format: cell-based; settings: Microsporum canis, PTCC5069, 48 h
C. albicans (ATCC 10231) [12] = test: Microdilution MIC90, strain A; format: cell-based; settings: strain A; for MIC90: 24 h, yeast, 24 h at 37 °C, triplicate
[13] = system: FLC-resistant clinical Candida isolate R4 (C. albicans); test: PMIC90, FLC-resistant isolate R4; format: cell-based; settings: strain R4, planktonic
[14] = system: human red blood cells (hRBCs); test: Hemolysis assay; format: cell-based; settings: 100 μg/mL, 2 h at 37 °C
[15] = system: FLC-resistant clinical Candida isolate R3 (C. albicans); test: PMIC90, FLC-resistant isolate R3; format: cell-based; settings: strain R3, planktonic
C. glabrata (ATCC 90030) = test: Microdilution MIC90, strain C; format: cell-based; settings: yeast, 24 h at 37 °C, triplicate
Asp. niger (PTCC 5154) = test: Microdilution MIC90, strain I; format: cell-based, Aspergillus niger; settings: filamentous fungi, 48 h at 37 °C, triplicate
C. albicans (ATCC 10231) [16] = test: Time-kill assay; format: cell-based; settings: 24 h period
C. albicans (ATCC 10231) [17] = test: Murine model of systemic candidiasis; format: in vivo; settings: neutropenic mice (n = 5), 15 mg/kg oral gavage, left kidney tissue
[18] = system: Microsporum gypseum (PTCC 5070); test: Microdilution MIC90, strain L; format: cell-based; settings: filamentous fungi, 48 h at 37 °C, triplicate
[19] = system: FLC-resistant clinical Candida isolates (R1–R7); test: PMIC, seven FLC-resistant clinical Candida isolates; format: cell-based; settings: read-out: MIC (growth inhibition concentrations)
[20] = system: T. mentagrophytes (PTCC 5054); test: Microdilution MIC90, strain M; format: cell-based; settings: Trichophyton mentagrophytes, PTCC5054, 48 h
[21] = MTT cytotoxicity assay, A-431; format: cell-based, human; settings: human, A-431 epidermoid carcinoma cells
[22] = system: C. tropicalis (PTCC 5028); test: Microdilution MIC90, strain E; format: cell-based; settings: 24 h
C. albicans (ATCC 10231) [23] = test: Membrane permeabilization assay; format: cell-based; settings: 8b, 8c at 1 × MIC, 2 × MIC, 4 × MIC (0.5, 1, 2 μg/mL); AMB 1 μg/mL; 3 h at 28 °C
[24] = system: FLC-resistant clinical Candida isolate R7 (C. glabrata); test: PMIC90, FLC-resistant isolate R7; format: cell-based; settings: strain R7, planktonic
[25] = system: dermatophyte isolates K–O; test: Microdilution MIC, dermatophyte isolates K–O; format: cell-based
[26] = Aspergillus fumigatus, PTCC5009, 48 h
[27] = Aspergillus terreus, PTCC5023, 48 h
[28] = Aspergillus niger, PTCC5154, 48 h

COc1ccc(NC(=O)Nc2nnc(SCC(O)(Cn3cncn3)c3ccc(F)cc3F)s2)cc1 (stereo not drawn) [Compound 8b, 1-(5-((2-(2,4-Difluorophenyl)-2-hydroxy-3-(1H-1,2,4-triazol-1-yl)propyl)thio)-1,3,4-thiadiazol-2-yl)-3-(4-methoxyphenyl)urea]
MIC90 [1, 26]: 2 to 4 µg/mL (≈ 3.85 to 7.7 µM) | MIC90 [1]: 1 μg·mL^–1 | SMIC90 (sessile minimum inhibitory concentration that reduced the metabolic activity of biofilms by 90%) [2]: 0.5 µg/mL | PMIC90 [3]: 0.5 µg/mL | MIC90 [4]: 8 µg/mL (≈ 15.4 µM) | PMIC90 [5]: 0.25 µg/mL | PMIC90 [6]: 2 µg/mL | PMIC90 [7]: 2 µg/mL | MIC90 [8]: 8 µg/mL (≈ 15.4 µM) | MIC90 (T. rubrum (PTCC 5143)): 2 µg/mL (≈ 3.85 µM) | MIC90 (Asp. terreus (PTCC 5023); [27]): 2 to 4 µg/mL (≈ 3.85 to 7.7 µM) | MIC90 (Asp. terreus (PTCC 5023)): 4 μg·mL^–1 | MIC90 [9]: 2 µg/mL (≈ 3.85 µM) | MIC90 [10]: 8 µg/mL (≈ 15.4 µM) | toxicity (in words) (HDF normal cells): none of the active compounds displayed toxicity | toxicity (in words) (PANC-1): no toxicity | MIC90 (C. krusei (ATCC 6258)): 0.5 µg/mL (≈ 0.962 µM) | fold greater potency than that of FLC (C. krusei (ATCC 6258); from MIC values): 32 fold | SMIC90 (sessile minimum inhibitory concentration that reduced the metabolic activity of biofilms by 90%) [11]: 1 µg/mL | MIC90 (M. canis (PTCC 5069)): 8 µg/mL (≈ 15.4 µM) | MIC90 (C. albicans (ATCC 10231) [12]): 0.5 µg/mL (≈ 0.962 µM) | fold greater potency than that of FLC (C. albicans (ATCC 10231) [12]; from MIC values): 32 fold | PMIC90 [13]: 1 µg/mL | hemolysis (in words) [14]: limited hemolysis | PMIC90 [15]: 2 µg/mL | MIC90 (C. glabrata (ATCC 90030); 24 h): 1 to 16 µg/mL (≈ 1.92 to 30.8 µM) | MIC90 (C. glabrata (ATCC 90030)): 1 μg·mL^–1 | MIC90 (Asp. niger (PTCC 5154); [28]): 2 to 4 µg/mL (≈ 3.85 to 7.7 µM) | MIC90 (Asp. niger (PTCC 5154)): 4 μg·mL^–1 | time-kill effect at 4 × MIC (C. albicans (ATCC 10231) [16]; at 4 × MIC (2 μg/mL for 8b, 8c; 64 μg/mL for FLC)): fungicidal activity of compound 8b significantly enhanced | time-kill effect at MIC (C. albicans (ATCC 10231) [16]; at MIC (0.5 μg/mL)): fungicidal effect | kidney fungal burden, CFU/g (mean ± SD) (C. albicans (ATCC 10231) [17]): 414 CFU/g and 414 ± 67.7 ^b CFU/g | MIC90 [18]: 4 μg·mL^–1 | MIC [19]: 0.25 to 2 µg/mL (≈ 0.481 to 3.85 µM) | MIC90 [20]: 4 µg/mL (≈ 7.7 µM) | viability at 48 h, 100 μg/mL [21]: < 50% | MIC90 [22]: 1 µg/mL (≈ 1.92 µM) | cellular uptake of the PI dye (C. albicans (ATCC 10231) [23]): none of our compounds 8b and 8c (at 1 × MIC, 2 × MIC, or 4 × MIC) induced the cellular uptake of the PI dye | PMIC90 [24]: 1 µg/mL

OC(Cn1cncn1)(Cn1cncn1)c1ccc(F)cc1F [FLC, Fluconazole, reference compound]
MIC90 [1, 26]: 4 µg/mL (≈ 13.1 µM) | PMIC90 [3]: >64 µg/mL | MIC [25]: 1 to 4 µg/mL (≈ 3.27 to 13.1 µM) | MIC90 [4]: 2 µg/mL (≈ 6.53 µM) | PMIC90 [5]: >64 µg/mL | PMIC90 [6]: >64 µg/mL | PMIC90 [7]: >64 µg/mL | MIC90 (T. rubrum (PTCC 5143)): 1 µg/mL (≈ 3.27 µM) | MIC90 (Asp. terreus (PTCC 5023); [27]): 4 µg/mL (≈ 13.1 µM) | MIC90 [9]: 4 µg/mL (≈ 13.1 µM) | MIC90 [10]: 2 µg/mL (≈ 6.53 µM) | MIC90 (C. krusei (ATCC 6258)): 16 µg/mL (≈ 52.2 µM) | MIC90 (M. canis (PTCC 5069)): 1 µg/mL (≈ 3.27 µM) | MIC90 (C. albicans (ATCC 10231) [12]): 16 µg/mL (≈ 52.2 µM) | PMIC90 [13]: >64 µg/mL | PMIC90 [15]: >64 µg/mL | MIC90 (C. glabrata (ATCC 90030); 24 h): 16 µg/mL (≈ 52.2 µM) | MIC90 (Asp. niger (PTCC 5154); [28]): 4 µg/mL (≈ 13.1 µM) | time-kill effect at 4 × MIC (C. albicans (ATCC 10231) [16]; […]; 64 μg/mL for FLC)): no significant effect | kidney fungal burden, CFU/g (mean ± SD) (C. albicans (ATCC 10231) [17]): 512 CFU/g and 512 ± 63.5 ^b CFU/g | MIC [19]: ≥ 64 µg/mL | MIC90 [20]: 4 µg/mL (≈ 13.1 µM) | MIC90 [22]: 4 µg/mL (≈ 13.1 µM) | PMIC90 [24]: >64 µg/mL
